In ChEMBL document CHEMBL1148419, “Novel P4 truncated tripeptidyl alpha-ketoamides as HCV protease inhibitors” (Bioorg Med Chem Lett, 2004):
The source made the active and inactive calls. The calls are words filed in the database; no cut-off is given here.

Each compound was assayed on Hepatitis C virus NS3 protease (Hepatitis C virus) (assay: Inhibitory activity against Protease using replicon assay in rats at 50 uM concentration). Conditions: Rattus norvegicus.
CCCC(NC(=O)[C@@H]1[C@H]2CCC(F)(F)[C@H]2CN1C(=O)[C@@H](NC(=O)OC(C)C)C(C)C)C(=O)C(=O)N[C@@H](C)c1ccccc1 (some centres not stated) showed an inhibition of 22%.
Compound CCCC(NC(=O)[C@@H]1[C@H]2CCC[C@H]2CN1C(=O)[C@@H](NC(=O)OC(C)C)C(C)C)C(=O)C(=O)N[C@@H](C)c1ccccc1 (some centres not stated) has an inhibition of 7%.
CCCC(NC(=O)[C@@H]1[C@H]2CCC(F)(F)[C@H]2CN1C(=O)[C@@H](NC(=O)[C@H](O)C(C)C)C(C)C)C(=O)C(=O)NC1CC1 (some centres not stated) was tested, and the inhibition was “inactive”.
CCCC(NC(=O)[C@@H]1[C@H]2CCC(F)(F)[C@H]2CN1C(=O)[C@@H](NC(=O)OC(C)C)C(C)(C)C)C(=O)C(=O)N[C@@H](C)c1ccccc1 (some centres not stated) gave an inhibition of 51%.

What follows are compounds tested on Hepatitis C virus NS3 protease (Hepatitis C virus) (assay: Inhibitory activity against Protease using replicon assay in rats at 50 uM concentration; Not active). Conditions: Rattus norvegicus.
For CCCC(NC(=O)[C@@H]1[C@H]2CCC[C@H]2CN1C(=O)[C@@H](NC(=O)[C@H](O)C(C)C)C(C)C)C(=O)C(=O)NC1CC1 (some centres not stated), the inhibition was “inactive”.
For CCCC(NC(=O)[C@@H]1[C@H]2CCC[C@H]2CN1C(=O)[C@@H](NC(=O)OC(C)C)C(C)(C)C)C(=O)C(=O)Nc1ccccc1 (some centres not stated), the inhibition was “inactive”.
For CCCC(NC(=O)[C@@H]1[C@H]2CCC[C@H]2CN1C(=O)[C@@H](NC(=O)[C@H](O)C(C)C)C(C)C)C(=O)C(=O)Nc1ccccc1 (some centres not stated), the inhibition was “inactive”.
